Experimental data taken from the NIST ThermoML archive (doi:10.1021/je500513b).

Assay: mn = molality of the nth substance listed, in mol/kg
Settings: for surface tension liquid-gas: Pendant drop shape; for electrical conductivity: 100 kPa, Liquid, Mettler Toledo inLab 710

CCCCCCCCCCCCCC[N+](C)(C)CCCC[N+](C)(C)CCCCCCCCCCCCCC.[Br-].[Br-] + O
Settings	electrical conductivity, 298.15 K [S/m]	electrical conductivity, 303.15 K [S/m]	electrical conductivity, 308.15 K [S/m]	electrical conductivity, 313.15 K [S/m]	electrical conductivity, 318.15 K [S/m]	electrical conductivity, 323.15 K [S/m]	surface tension liquid-gas, 298.15 K [mN/m]
m1 = 1e-05	–	–	–	–	–	–	58.66
m1 = 2e-05	–	–	–	–	–	–	56.16
m1 = 3e-05	–	–	–	–	–	–	51.87
m1 = 4e-05	–	–	–	–	–	–	50.69
m1 = 5e-05	–	–	–	–	–	–	49.28
m1 = 6e-05	–	–	–	–	–	–	47.86
m1 = 7e-05	–	–	–	–	–	–	45.48
m1 = 8e-05	–	–	–	–	–	–	44.02
m1 = 9e-05	–	–	–	–	–	–	43.09
m1 = 0.0001	–	–	–	–	–	–	42.13
m1 = 0.000111	0.00256	–	0.00315	0.00337	–	0.00418	–
m1 = 0.000118	0.0027	0.00296	0.00332	0.00354	0.00387	0.00442	–
m1 = 0.00012	–	–	–	–	–	–	39.63
m1 = 0.000125	0.00286	0.00313	0.00351	0.00375	0.00411	0.00465	–
m1 = 0.000133	0.003	0.00333	0.00371	0.00401	0.00436	0.0049	–
m1 = 0.00014	–	–	–	–	–	–	39.01
m1 = 0.000143	0.00321	0.00354	0.00392	0.00426	0.00463	0.00514	–
m1 = 0.00015	0.00333	0.00365	0.00407	0.00448	0.00486	0.00538	–
m1 = 0.000158	0.00344	0.00377	0.00423	0.00468	0.005	0.00563	–
m1 = 0.000167	0.00354	0.00391	0.00442	0.00491	0.00524	0.00588	–
m1 = 0.00017	–	–	–	–	–	–	38.87
m1 = 0.000176	0.00364	0.00405	0.00458	0.00514	0.00548	0.0062	–
m1 = 0.000188	0.00373	0.00418	0.00475	0.0054	0.00576	0.00653	–
m1 = 0.000197	0.00382	0.00427	0.00487	0.00557	0.00593	0.00682	–
m1 = 0.0002	–	–	–	–	–	–	38.31
m1 = 0.000207	0.0039	0.00436	0.005	0.00574	0.00612	0.00712	–
m1 = 0.000218	0.00399	0.00447	0.00514	0.00588	0.00632	0.00745	–
m1 = 0.000231	0.00409	0.00457	0.00529	0.00606	0.00655	0.00772	–
m1 = 0.00024	0.00416	0.00465	0.00539	0.00617	0.00667	0.00786	–
m1 = 0.00025	0.00422	0.00473	0.00549	0.00628	0.0068	0.00805	–
m1 = 0.000261	0.0043	0.00482	0.0056	0.00641	0.00694	0.00823	–
m1 = 0.000273	0.00438	0.00489	0.00572	0.00652	0.00708	0.00839	–
m1 = 0.000286	0.00448	0.00499	0.00584	0.00667	0.00724	0.00858	–
m1 = 0.0003	0.00459	0.00512	0.00597	0.00681	0.0074	0.00877	37.21

O [water] + CCCCCCCCCCCCCC[N+](C)(C)CCCCCC[N+](C)(C)CCCCCCCCCCCCCC.[Br-].[Br-]
Settings	surface tension liquid-gas [mN/m]
298.15 K, m2 = 0	71.98

CCCCCCCCCCCCCC[N+](C)(C)CCC[N+](C)(C)CCCCCCCCCCCCCC.[Br-].[Br-] + O
Settings	electrical conductivity, 298.15 K [S/m]	electrical conductivity, 303.15 K [S/m]	electrical conductivity, 308.15 K [S/m]	electrical conductivity, 313.15 K [S/m]	electrical conductivity, 318.15 K [S/m]	electrical conductivity, 323.15 K [S/m]	surface tension liquid-gas, 298.15 K [mN/m]
m1 = 1e-05	–	–	–	–	–	–	57.45
m1 = 2e-05	–	–	–	–	–	–	53.65
m1 = 3e-05	–	–	–	–	–	–	50.48
m1 = 4e-05	–	–	–	–	–	–	47.51
m1 = 5e-05	–	–	–	–	–	–	45.48
m1 = 6e-05	–	–	–	–	–	–	42.44
m1 = 7e-05	–	–	–	–	–	–	40.27
m1 = 8e-05	–	–	–	–	–	–	38.27
m1 = 9e-05	–	–	–	–	–	–	37
m1 = 9.3e-05	0.00212	–	0.0026	0.00309	0.00331	0.00348	–
m1 = 9.8e-05	0.00224	0.00251	0.00274	0.00324	0.00345	0.00363	–
m1 = 0.0001	–	–	–	–	–	–	35.52
m1 = 0.000104	0.00236	0.00267	0.00288	0.00343	0.00361	0.00382	–
m1 = 0.000111	0.0025	0.00283	0.00302	0.00364	0.00382	0.004	–
m1 = 0.000119	0.00264	0.003	0.00323	0.00382	0.00404	0.00422	–
m1 = 0.00012	–	–	–	–	–	–	34.27
m1 = 0.000125	0.00274	0.00311	0.00335	0.00391	0.0042	0.00441	–
m1 = 0.000132	0.00285	0.00324	0.0035	0.00407	0.00435	0.00462	–
m1 = 0.000139	0.00294	0.00337	0.00367	0.00423	0.00454	0.00486	–
m1 = 0.00014	–	–	–	–	–	–	34.18
m1 = 0.000147	0.00303	0.00351	0.00382	0.00441	0.00478	0.00512	–
m1 = 0.000156	0.00311	0.00364	0.00398	0.00463	0.00506	0.00542	–
m1 = 0.000164	0.00318	0.00373	0.00411	0.00479	0.00528	0.00565	–
m1 = 0.00017	–	–	–	–	–	–	34.06
m1 = 0.000172	0.00325	0.00381	0.00421	0.00497	0.0055	0.00593	–
m1 = 0.000182	0.00331	0.0039	0.00434	0.00513	0.00572	0.0062	–
m1 = 0.000192	0.00338	0.00399	0.00448	0.00532	0.00599	0.00651	–
m1 = 0.0002	0.00343	0.00405	0.00455	0.00542	0.00614	0.00669	33.81
m1 = 0.000208	0.00348	0.00412	0.00464	0.00552	0.00628	0.00688	–
m1 = 0.000217	0.00352	0.00418	0.00471	0.00564	0.00642	0.00704	–
m1 = 0.000227	0.00358	0.00426	0.00479	0.00574	0.00656	0.0072	–
m1 = 0.000238	0.00365	0.00434	0.00488	0.00582	0.0067	0.00737	–
m1 = 0.00025	0.00372	0.00443	0.00498	0.00594	0.00684	0.00754	–
m1 = 0.0003	–	–	–	–	–	–	33.92
